# Laboratory results taken from patent publication US11040981B2, “Pyrrolotriazine compounds and methods of inhibiting TAM kinases” (Syros Pharmaceuticals, Inc., priority 2017, dated 2021).
# What was measured:
# MERTK = molecular target: T1, MERTK (Homo sapiens, UniProt Q12866); assay: TR-FRET kinase activity assay, MERTK; assay type: biochemical; settings: for IC50: TR-FRET activity assay, ATP at Km, 60 minutes, read-out: Mer IC50
# T1 sequence (Q12866 21-999): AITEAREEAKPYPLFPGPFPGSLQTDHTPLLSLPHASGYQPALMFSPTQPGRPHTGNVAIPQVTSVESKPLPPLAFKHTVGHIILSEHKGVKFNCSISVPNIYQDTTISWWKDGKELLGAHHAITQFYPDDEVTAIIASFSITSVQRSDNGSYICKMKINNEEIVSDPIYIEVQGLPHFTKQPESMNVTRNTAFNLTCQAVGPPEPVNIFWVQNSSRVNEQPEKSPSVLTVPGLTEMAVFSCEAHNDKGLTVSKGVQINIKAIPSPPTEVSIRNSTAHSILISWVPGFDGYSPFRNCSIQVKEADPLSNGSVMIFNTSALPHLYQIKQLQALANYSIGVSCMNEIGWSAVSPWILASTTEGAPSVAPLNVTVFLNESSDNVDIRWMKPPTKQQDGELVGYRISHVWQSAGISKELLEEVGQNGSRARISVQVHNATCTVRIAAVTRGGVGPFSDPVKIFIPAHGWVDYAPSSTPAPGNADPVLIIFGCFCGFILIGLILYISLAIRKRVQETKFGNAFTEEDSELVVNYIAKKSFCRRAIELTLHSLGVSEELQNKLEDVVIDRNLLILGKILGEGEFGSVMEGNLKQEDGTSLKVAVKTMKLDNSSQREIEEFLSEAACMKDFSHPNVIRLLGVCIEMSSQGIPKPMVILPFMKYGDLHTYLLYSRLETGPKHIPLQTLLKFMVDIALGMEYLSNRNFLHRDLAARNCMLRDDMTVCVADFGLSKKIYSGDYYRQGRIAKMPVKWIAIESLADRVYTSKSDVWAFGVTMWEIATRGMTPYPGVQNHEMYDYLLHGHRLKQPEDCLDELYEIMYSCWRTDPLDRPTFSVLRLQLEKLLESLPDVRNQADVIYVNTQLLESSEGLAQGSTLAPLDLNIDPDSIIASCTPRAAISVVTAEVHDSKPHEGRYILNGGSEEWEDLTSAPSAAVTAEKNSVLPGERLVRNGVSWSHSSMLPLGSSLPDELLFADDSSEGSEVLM
# Method in brief: (§1)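 Enzyme + labelled peptide + cpd premixed; ATP at per-enzyme Km starts rxn. 60 min RT, HEPES pH 7.5/MgCl2/EGTA/Brij 35/DTT buffer. Stop 12.5 mM EDTA, Eu phospho-Ab 30 min dark, TR-FRET read → IC50.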
# TYRO3 = molecular target: T2, TYRO3 (Homo sapiens, UniProt Q06418); assay: TR-FRET kinase activity assay, TYRO3; assay type: biochemical; settings: ATP at Km, 60 minutes
# T2 sequence (Q06418 41-890): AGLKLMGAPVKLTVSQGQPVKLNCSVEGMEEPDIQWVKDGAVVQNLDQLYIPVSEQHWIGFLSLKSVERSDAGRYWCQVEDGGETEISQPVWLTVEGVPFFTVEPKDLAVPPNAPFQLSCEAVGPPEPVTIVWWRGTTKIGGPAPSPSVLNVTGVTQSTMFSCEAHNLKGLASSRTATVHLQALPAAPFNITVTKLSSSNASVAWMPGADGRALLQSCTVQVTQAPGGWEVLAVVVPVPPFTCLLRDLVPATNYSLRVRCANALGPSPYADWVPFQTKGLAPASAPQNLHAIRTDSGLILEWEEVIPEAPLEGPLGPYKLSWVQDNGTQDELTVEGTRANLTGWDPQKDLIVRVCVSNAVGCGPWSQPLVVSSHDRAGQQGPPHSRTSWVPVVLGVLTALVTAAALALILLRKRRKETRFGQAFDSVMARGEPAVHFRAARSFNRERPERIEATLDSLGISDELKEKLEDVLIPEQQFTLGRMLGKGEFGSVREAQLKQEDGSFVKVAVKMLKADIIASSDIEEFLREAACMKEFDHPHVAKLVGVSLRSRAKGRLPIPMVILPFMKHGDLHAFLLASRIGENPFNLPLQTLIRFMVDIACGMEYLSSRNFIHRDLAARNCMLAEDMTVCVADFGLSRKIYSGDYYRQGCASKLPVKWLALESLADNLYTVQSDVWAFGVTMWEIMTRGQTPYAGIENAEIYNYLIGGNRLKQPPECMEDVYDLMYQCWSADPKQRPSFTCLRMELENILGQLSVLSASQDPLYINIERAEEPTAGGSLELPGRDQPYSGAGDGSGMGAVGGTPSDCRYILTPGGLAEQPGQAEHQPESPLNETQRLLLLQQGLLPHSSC
# Method in brief: as §1
# [1] = ratio calculated as FLT3 IC50/Mer IC50
# [2] = ratio of Mer to FLT3: FLT3 IC50/Mer IC50
SMILES,IC50 (MERTK) [µM],FLT3/Mer ratio (FLT3 IC50/Mer IC50) (MERTK; [1]),IC50 (TYRO3) [µM],FLT3/Mer ratio (FLT3 IC50/Mer IC50) (MERTK; [2])
COC[C@H](C)Nc1ncc2c(-c3cnn(C(C)(C)c4nc(C)co4)c3)cc([C@H]3CC[C@H](O)CC3)n2n1 [Compound 623],≤ 0.1,+++ (“+++” represents a ratio of >100),≤ 0.1,–
CCOC(=O)Cn1cc(-c2cc([C@H]3CC[C@H](O)CC3)n3nc(N[C@@H](C)COC)ncc23)cn1 [Compound 159],≤ 0.1,–,≤ 0.1,+++ (“+++” represents a ratio of >100)
COC[C@H](C)Nc1ncc2c(-c3cnn(C(C)(C)C(=O)N4CCCC(C)(O)C4)c3)cc([C@H]3CC[C@H](O)CC3)n2n1 (stereo partly drawn) [Compound 621],≤ 0.1,+++ (“+++” represents a ratio of >100),≤ 0.1,–
COC[C@H](C)Nc1ncc2c(-c3cnn(Cc4nnc(C)s4)c3)cc([C@H]3CC[C@H](O)CC3)n2n1 [Compound 596],≤ 0.1,+++ (“+++” represents a ratio of >100),≤ 0.1,–
COC[C@H](C)Nc1ncc2c(-c3cnn(C(C)(C)c4nnc(C(F)(F)F)o4)c3)cc([C@H]3CC[C@H](O)CC3)n2n1 [Compound 603],≤ 0.1,+++ (“+++” represents a ratio of >100),≤ 0.1,–
COC[C@H](C)Nc1ncc2c(-c3ccc(C4(C(=O)N5CCOCC5)CC4)cc3)cc([C@H]3CC[C@H](O)CC3)n2n1 [Compound 171],≤ 0.1,–,≤ 0.1,++ (“++” represents a ratio of between 10 and 100)
COC[C@H](C)Nc1ncc2c(-c3cnn(C4COC4)c3)cc([C@H]3CC[C@@](O)(C(C)C)CC3)n2n1 [Compound 618],≤ 0.1,+++ (“+++” represents a ratio of >100),≤ 0.1,–
C[C@@H](COC(F)F)Nc1ncc2c(-c3ccnc(N4CCO[C@@H](C(C)(C)O)C4)c3)cc([C@H]3CC[C@H](O)CC3)n2n1 [Compound 597],≤ 0.1,+++ (“+++” represents a ratio of >100),≤ 0.1,–
COC[C@H](C)Nc1ncc2c(-c3ccc(C#N)c(F)c3)cc([C@H]3CC[C@H](O)CC3)n2n1 [Compound 169],≤ 0.1,–,≤ 0.1,+++ (“+++” represents a ratio of >100)
"COC[C@H](C)N(C)c1ncc2c(-c3ccnc(C)c3)cc([C@H]3CC[C@H](O)CC3)n2n1 [Compound 175, (trans)-4-(2-(((S)-1-methoxypropan-2-yl)(methyl)amino)-5-(2-methylpyridin-4-yl)pyrrolo[2,1-f][1,2,4]triazin-7-yl)cyclohexanol]",0.1 to 1,–,1 to 10,++ (“++” represents a ratio of between 10 and 100)
COC[C@H](C)Nc1ncc2c(-c3ccc(CN4CCN(C)CC4)cc3)cc([C@H]3CC[C@@H](O)CC3)n2n1 [Compound 155],≤ 0.1,–,≤ 0.1,++ (“++” represents a ratio of between 10 and 100)
COCC(C)Nc1ncc2c(-c3ccc(C(C)N4CCOCC4)cc3)cc(C3CCC(O)CC3)n2n1 (stereo not drawn) [Compound 182],≤ 0.1,–,≤ 0.1,++ (“++” represents a ratio of between 10 and 100)
C[C@@H](CC(F)(F)F)Nc1ncc2c(-c3cnn(C(C)(C)C(=O)N4CCN(C)CC4)c3)cc(C3CCC(O)CC3)n2n1 (stereo partly drawn) [Compound 626],≤ 0.1,++ (“++” represents a ratio of between 10 and 100),≤ 0.1,–
COC[C@H](C)Nc1ncc2c(-c3cnn(C(C)(C)C(=O)N4CC(C)(O)C4)c3)cc([C@H]3CC[C@H](O)CC3)n2n1 [Compound 622],≤ 0.1,+++ (“+++” represents a ratio of >100),≤ 0.1,–
COC[C@H](C)Nc1ncc2c(-c3cnn(CC(=O)O)c3)cc([C@H]3CC[C@H](O)CC3)n2n1 [Compound 160],≤ 0.1,–,≤ 0.1,+++ (“+++” represents a ratio of >100)
[2H]C([2H])([2H])OCC(C)Nc1ncc2c(-c3cnn(C4COC4)c3)cc(C3CCC(O)CC3)n2n1 (stereo not drawn) [Compound 630],≤ 0.1,+++ (“+++” represents a ratio of >100),≤ 0.1,–
COC[C@H](C)Nc1ncc2c(-c3cnn(CC(C)C)c3)cc([C@H]3CC[C@H](O)CC3)n2n1 [Compound 167],≤ 0.1,–,≤ 0.1,+++ (“+++” represents a ratio of >100)
COC[C@H](C)Nc1ncc2c(-c3cnccc3C)cc([C@H]3CC[C@H](O)CC3)n2n1 [Compound 168],≤ 0.1,–,0.1 to 1,+++ (“+++” represents a ratio of >100)
COC[C@H](C)Nc1ncc2c(-c3ccc([C@@H](C)N4CCOCC4)cc3)cc([C@H]3CC[C@H](O)CC3)n2n1 [Compound 156],≤ 0.1,–,≤ 0.1,++ (“++” represents a ratio of between 10 and 100)
COC[C@H](C)Nc1ncc2c(-c3ccc(C4(C(=O)O)CC4)cc3)cc([C@H]3CC[C@H](O)CC3)n2n1 [Compound 173],≤ 0.1,–,≤ 0.1,+++ (“+++” represents a ratio of >100)
COC[C@H](C)Nc1ncc2c(-c3ccnc(N4CCC(C)(O)CC4)c3)cc([C@H]3CC[C@H](O)CC3)n2n1 [Compound 605],≤ 0.1,+++ (“+++” represents a ratio of >100),≤ 0.1,–
COCC(C)Nc1ncc2c(-c3ccc(C(C)N4CCCC4)cc3)cc(C3CCC(O)CC3)n2n1 (stereo not drawn) [Compound 164],≤ 0.1,–,≤ 0.1,++ (“++” represents a ratio of between 10 and 100)
COC[C@H](C)Nc1ncc2c(-c3cnn(C(C)(C)C(=O)N4CCCC4)c3)cc([C@H]3CC[C@H](O)CC3)n2n1 [Compound 612],≤ 0.1,+++ (“+++” represents a ratio of >100),≤ 0.1,–
COCC(C)Nc1ncc2c(-c3ccc(C(C)N4CCOCC4)cc3)cc(C3CCC(O)CC3)n2n1 (stereo not drawn) [Compound 181],≤ 0.1,–,≤ 0.1,++ (“++” represents a ratio of between 10 and 100)
COC[C@H](C)Nc1ncc2c(N3CC4(COC4)CC3=O)cc([C@H]3CC[C@H](O)CC3)n2n1 [Compound 178],≤ 0.1,–,0.1 to 1,+++ (“+++” represents a ratio of >100)
COC[C@H](C)Nc1ncc2c(-c3cnn(C(C)(C)c4nnco4)c3)cc([C@H]3CC[C@H](O)CC3)n2n1 [Compound 604],≤ 0.1,+++ (“+++” represents a ratio of >100),≤ 0.1,–
